Data as given in patent publication US5952501A, “Certain tricyclic substituted diazabicylo[3.2.1] octane derivatives” (priority 1995, dated 1999).
Read-outs that look alike come from different tables or passages of the source.

What was measured:
[1] = cited from earlier work
stereotypy:hyperactivity = stereotypy:hyperactivity ED50 ratio (typical versus atypical neuroleptic profile); format: in vivo, male Sprague-Dawley rats; details: for neuroleptic profile: in words, stereotypy versus hyperactivity models; for Ratio: stereotypy:hyperactivity ED50 ratio, greater than ten considered clozapine like atypical
Text: The ratios of the ED50 's determined in the assay systems described above are predictive of typical versus atypical profiles for potential neuroleptic candidates.
A compound encompassed within the disclosure of French patent application No. 71.27825 was synthesized and evaluated using the assays described above. This prior art compound is designated Compound A for purposes of comparison and has the formula: [drawing 12]

[2] = test system: apomorphine-induced stereotypy; experiment: Antagonism of Apomorphine-Induced Stereotypy; details: Rattus norvegicus, sc, 1 h, read-out: ED50 Stereotypy
[3] = test system: amphetamine-induced hyperactivity; details: Rattus norvegicus, sc, 1 h, read-out: ED50 Hyperactivity

Structure (SMILES) | incidence of extrapyramidal side effects ([1]; in vivo) | neuroleptic profile (stereotypy:hyperactivity) | Ratio (stereotypy:hyperactivity) | incidence of extrapyramidal side effects ([1]; in words, than classical neuroleptics, background) | ED50 [2] | ED50 [3]
CCN1CCCC1CNC(=O)c1cc(S(N)(=O)=O)ccc1OC (stereo not shown) [sulpiride] | lesser incidence of extrapyramidal side effects than classical neuroleptics | – | – | – | – | –
CN1CCN(C2=Nc3cc(Cl)ccc3Nc3ccccc32)CC1 [Clozapine] | – | clozapine-like atypical antipsychotic profiles | 18 | lesser incidence of extrapyramidal side effects than classical neuroleptics | 26.9 mg/kg | 1.49 mg/kg
CN1CCN([C@@H]2Cc3ccccc3Sc3ccc(Cl)cc32)CC1 [R-Octoclothepin] | – | – | 4.4 | – | 0.18 mg/kg | 0.8 mg/kg
CN1C2CCC1CN(C1Cc3ccccc3Oc3ccc(Cl)cc31)C2 (stereo not shown) [Prior Art Cpd A] | – | typical neuroleptic profile which is comparable to conventional neuroleptic agents | 3.1 | – | 0.69 mg/kg | 0.22 mg/kg
O=C(CCCN1CCC(O)(c2ccc(Cl)cc2)CC1)c1ccc(F)cc1 [Haloperidol] | – | – | 0.94 | – | 0.036 mg/kg | 0.038 mg/kg
CN1C2CCC1CN(C1Cc3cc(Cl)ccc3Oc3ccccc31)C2.O=C(O)/C=C\C(=O)O (stereo not shown) [Compound 1, 3-(2-Chloro-10,11-dihydro-dibenzo[b,f]oxepin-10-yl)-8-methyl-3,8-diazabicyclo(3.2.1)octane monomaleate] | – | – | > 48 | – | > 40 mg/kg | 0.84 mg/kg
Cc1ccc2c(c1)CC(N1CC3CCC(C1)N3C)c1ccccc1O2.O=C(O)/C=C\C(=O)O (stereo not shown) [Compound 2, 3-(2-Methyl-10,11-dihydro-dibenzo[b,f]oxepin-10-yl)-8-methyl-3,8-diazabicyclo(3.2.1)octane monomaleate] | – | – | 31 | – | 12.7 mg/kg | 0.41 mg/kg
CCN1CCC[C@H]1CNC(=O)c1c(O)c(Cl)cc(Cl)c1OC [Raclopride] | – | – | 0.92 | – | 0.044 mg/kg | 0.048 mg/kg
CN1C2CCC1CN(C1Cc3cc(Br)ccc3Oc3ccccc31)C2.O=C(O)/C=C\C(=O)O (stereo not shown) [Compound 3, 3-(2-Bromo-10,11-dihydro-dibenzo[b,f]oxepin-10-yl)-8-methyl-3,8-diazabicyclo(3.2.1)octane monomaleate] | – | – | > 10 | – | > 22 mg/kg | 2.15 mg/kg
